Measured values: PubChem BioAssay (NCI)
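1) Cells in 96-well plates. 2) Compound, 48 h, 5 concentrations. 3) Linear interpolation between surrounding doses. 4) Unreached endpoint = highest concentration. TGI: concentration producing complete growth inhibition.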

Tests used:
Experiment in all cases: NCI anticancer screen, dose series, 48 h
786-0 renal = system: 786-0 renal
A549 NSCLC = system: A549 NSCLC
ACHN renal = system: ACHN renal
BT-549 breast = system: BT-549 breast
CAKI-1 renal = system: CAKI-1 renal
CCRF-CEM leukemia = system: CCRF-CEM leukemia
COLO 205 colon = system: COLO 205 colon
DU-145 prostate = system: DU-145 prostate
EKVX NSCLC = system: EKVX NSCLC
HCC-2998 colon = system: HCC-2998 colon
HCT-116 colon = system: HCT-116 colon
HCT-15 colon = system: HCT-15 colon
HOP-62 NSCLC = system: HOP-62 NSCLC
HOP-92 NSCLC = system: HOP-92 NSCLC
HS 578T breast = system: HS 578T breast
HT29 colon = system: HT29 colon
IGROV1 ovarian = system: IGROV1 ovarian
KM12 colon = system: KM12 colon
LOX IMVI melanoma = system: LOX IMVI melanoma
M14 melanoma = system: M14 melanoma
MALME-3M melanoma = system: MALME-3M melanoma
MCF7 breast = system: MCF7 breast
MDA-MB-231 breast = system: MDA-MB-231 breast
MDA-MB-435 = system: MDA-MB-435
MOLT-4 leukemia = system: MOLT-4 leukemia
NCI-H226 lung = system: NCI-H226 lung
NCI-H23 lung = system: NCI-H23 lung
NCI-H460 lung = system: NCI-H460 lung
NCI-H522 lung = system: NCI-H522 lung
NCI/ADR-RES ovarian = system: NCI/ADR-RES ovarian
OVCAR-3 ovarian = system: OVCAR-3 ovarian
OVCAR-4 ovarian = system: OVCAR-4 ovarian
OVCAR-5 ovarian = system: OVCAR-5 ovarian
OVCAR-8 ovarian = system: OVCAR-8 ovarian
PC-3 prostate = system: PC-3 prostate
RPMI-8226 leukemia = system: RPMI-8226 leukemia
SF-268 CNS = system: SF-268 CNS
SF-295 CNS = system: SF-295 CNS
SF-539 CNS = system: SF-539 CNS
SK-MEL-2 melanoma = system: SK-MEL-2 melanoma
SK-MEL-28 melanoma = system: SK-MEL-28 melanoma
SK-MEL-5 melanoma = system: SK-MEL-5 melanoma
SK-OV-3 ovarian = system: SK-OV-3 ovarian
SN12C renal = system: SN12C renal
SNB-19 CNS = system: SNB-19 CNS
SR leukemia = system: SR leukemia
SW-620 colon = system: SW-620 colon
T-47D breast = system: T-47D breast
TK-10 renal = system: TK-10 renal
U251 CNS = system: U251 CNS
UACC-257 melanoma = system: UACC-257 melanoma
UACC-62 melanoma = system: UACC-62 melanoma
UO-31 renal = system: UO-31 renal

SMILES: CN(C)CCn1c2c(c3ccccc31)CCc1ccccc1-2
- TGI (786-0 renal): 28.4 µM
- TGI (A549 NSCLC): 28.3 µM
- TGI (ACHN renal): 29.9 µM
- TGI (BT-549 breast): 27.8 µM
- TGI (CAKI-1 renal): 29.4 µM
- TGI (CCRF-CEM leukemia): 44.6 µM
- TGI (COLO 205 colon): 25.6 µM
- TGI (DU-145 prostate): 29.8 µM
- TGI (EKVX NSCLC): 32.4 µM
- TGI (HCC-2998 colon): 16.7 µM
- TGI (HCT-116 colon): 26.3 µM
- TGI (HCT-15 colon): 22.5 µM
- TGI (HOP-62 NSCLC): 29.1 µM
- TGI (HOP-92 NSCLC): 27 µM
- TGI (HS 578T breast): 29.7 µM
- TGI (HT29 colon): 21.1 µM
- TGI (IGROV1 ovarian): 21.8 µM
- TGI (KM12 colon): 26.3 µM
- TGI (LOX IMVI melanoma): 32.2 µM
- TGI (M14 melanoma): 26.3 µM
- TGI (MALME-3M melanoma): 30.5 µM
- TGI (MCF7 breast): 30.5 µM
- TGI (MDA-MB-231 breast): 29.3 µM
- TGI (MDA-MB-435): 37.7 µM
- TGI (MOLT-4 leukemia): 29.1 µM
- TGI (NCI-H226 lung): 26 µM
- TGI (NCI-H23 lung): 31.4 µM
- TGI (NCI-H460 lung): 27.5 µM
- TGI (NCI-H522 lung): 29.4 µM
- TGI (NCI/ADR-RES ovarian): 29.9 µM
- TGI (OVCAR-3 ovarian): 27.7 µM
- TGI (OVCAR-4 ovarian): 28.3 µM
- TGI (OVCAR-5 ovarian): 31.7 µM
- TGI (OVCAR-8 ovarian): 29.5 µM
- TGI (PC-3 prostate): 23.5 µM
- TGI (RPMI-8226 leukemia): 28.3 µM
- TGI (SF-268 CNS): 32.3 µM
- TGI (SF-295 CNS): 30.6 µM
- TGI (SF-539 CNS): 26.2 µM
- TGI (SK-MEL-2 melanoma): 28.6 µM
- TGI (SK-MEL-28 melanoma): 29.9 µM
- TGI (SK-MEL-5 melanoma): 21.1 µM
- TGI (SK-OV-3 ovarian): 32.7 µM
- TGI (SN12C renal): 28.3 µM
- TGI (SNB-19 CNS): 33.5 µM
- TGI (SR leukemia): 27.1 µM
- TGI (SW-620 colon): 40.4 µM
- TGI (T-47D breast): 54.8 µM
- TGI (TK-10 renal): 30.5 µM
- TGI (U251 CNS): 26.8 µM
- TGI (UACC-257 melanoma): 27.7 µM
- TGI (UACC-62 melanoma): 25.9 µM
- TGI (UO-31 renal): 26.8 µM
